Here are results for four molecules from ChEMBL document CHEMBL4219227, “Polyprenylated polycyclic acylphloroglucinol: Angiogenesis inhibitor from Garcinia multiflora” (Bioorg Med Chem Lett, 2018).

Format in all cases: functional
The species named for assay [1] is Homo sapiens. Description: Growth inhibition of human CD34-positive EPC at 10 uM after 48 hrs by SRB assay. (In general: In SRB staining, fixed cells bind dye roughly in proportion to their protein.)
Assay [2] can be described thus: Antiangiogenic activity in human CD34-positive EPC assessed as suppression of capillary-like structure formation after 24 hrs by phase contrast microscopic method.
For assay [3], the species on record is Homo sapiens. Description: Antiangiogenic activity in human CD34-positive EPC assessed as suppression of cell reorganization at 20 uM after 24 hrs by phase contrast microscopic method.
The species named for assay [4] is Homo sapiens. Kind of assay: Antiangiogenic activity in human CD34-positive EPC assessed as suppression of capillary-like structure formation at 20 uM after 24 hrs by phase contrast microscopic method.
A further assay has as its system PC-3. Kind of assay: Growth inhibition of human PC3 cells after 48 hrs by SRB assay. As to conditions: PC-3, 48 h.
In a further assay the test system is SK-HEP1. Description: Growth inhibition of human SKHEP1 cells after 48 hrs by SRB assay. Particulars: SK-HEP1, 48 h.

Activity calls are given as the source filed them. The calls are words filed in the database; no cut-off is given here. Bounds are passed on as bounds.

One may read the IC50 as the concentration that inhibits the measured activity by half. In general, GI50 refers to the concentration that inhibits growth by half. High values mean less potent growth inhibition, low ones more potent growth inhibition. For `C=C(C)[C@@H](CC=C(C)C)C[C@]12C[C@@H](CC=C(C)C)C(C)(C)[C@](CC=C(C)C)(C1=O)C(O)=C(C(=O)c1ccccc1)C2=O`, in the assay filed under Homo sapiens [1], the “growth inhibition (GI)” value was “Active”. In assay [2], the IC50 was 14.3 µM. The result in the assay listed under Homo sapiens [3] and in the assay filed under Homo sapiens [4] was Active. Besides, the GI50 in the assay on PC-3 stood at 6.6 µM; in the assay with SK-HEP1, 4.3 µM.

As for `CC(C)=CCC1=C2OC(C)(C)[C@@H](CC=C(C)C)C[C@@]23C[C@@H](CC=C(C)C)C(C)(C)[C@@](C(=O)c2ccccc2)(C1=O)C3=O` [GARCIMULTIFLORONE A], in the assay listed under Homo sapiens [1], the “growth inhibition (GI)” value was “Active”. Also, in assay [2], the IC50 amounted to 16.5 µM. Moreover, the result in the assay listed under Homo sapiens [3] and in the assay listed under Homo sapiens [4] was Active. The GI50 was 24.8 µM with PC-3 and more than 30 µM in the assay on SK-HEP1.

Regarding `C=C(C)[C@@H](CC=C(C)C)C[C@@]12C[C@@H](CC=C(C)C)C(C)(C)[C@]3(C=CC(C)(C)OC3=C(C(=O)c3ccccc3)C1=O)C2=O` [GARCIMULTIFLORONE B], in the assay listed under Homo sapiens [1], the “growth inhibition (GI)” value was “Active”. Also, the IC50 in assay [2] was 15.7 µM. In addition, the result in the assay listed under Homo sapiens [3] and in the assay listed under Homo sapiens [4] was Active. Moreover, the GI50 in the assay on PC-3 is 18.2 µM; with SK-HEP1, more than 30 µM.

On to `CC(=O)O[C@H]1C(=O)[C@@]2(C)[C@H]([C@H](OC(=O)c3ccccc3)[C@]3(O)C[C@H](OC(=O)[C@H](O)[C@@H](NC(=O)c4ccccc4)c4ccccc4)C(C)=C1C3(C)C)[C@]1(OC(C)=O)CO[C@@H]1C[C@@H]2O` [PACLITAXEL], for which the GI50 with PC-3 came to 0.013 µM; in the assay on SK-HEP1, 0.011 µM.
